Assay results reported in PubChem BioAssay (NCI).
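Method: 48-hour compound exposure of cells in 96-well plates, five concentrations, linear interpolation of endpoints. Abbreviation: GI50, concentration required for 50% inhibition of growth. TGI is the concentration that stops growth completely.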

Key:
Assay in all cases: NCI anticancer screen, dose series, 48 h
[1] = test system: 786-0 renal
[2] = test system: A498 renal
[3] = test system: A549 NSCLC
[4] = test system: ACHN renal
[5] = test system: BT-549 breast
[6] = test system: CAKI-1 renal
[7] = test system: CCRF-CEM leukemia
[8] = test system: COLO 205 colon
[9] = test system: DU-145 prostate
[10] = test system: EKVX NSCLC
[11] = test system: HCC-2998 colon
[12] = test system: HCT-116 colon
[13] = test system: HCT-15 colon
[14] = test system: HL-60(TB) leukemia
[15] = test system: HOP-62 NSCLC
[16] = test system: HOP-92 NSCLC
[17] = test system: HS 578T breast
[18] = test system: HT29 colon
[19] = test system: IGROV1 ovarian
[20] = test system: K-562 leukemia
[21] = test system: KM12 colon
[22] = test system: LOX IMVI melanoma
[23] = test system: M14 melanoma
[24] = test system: MALME-3M melanoma
[25] = test system: MCF7 breast
[26] = test system: MDA-MB-231 breast
[27] = test system: MDA-MB-435
[28] = test system: MDA-MB-468 breast
[29] = test system: MOLT-4 leukemia
[30] = test system: NCI-H226 lung
[31] = test system: NCI-H23 lung
[32] = test system: NCI-H460 lung
[33] = test system: NCI-H522 lung
[34] = test system: NCI/ADR-RES ovarian
[35] = test system: OVCAR-3 ovarian
[36] = test system: OVCAR-4 ovarian
[37] = test system: OVCAR-5 ovarian
[38] = test system: OVCAR-8 ovarian
[39] = test system: PC-3 prostate
[40] = test system: RPMI-8226 leukemia
[41] = test system: RXF 393 renal
[42] = test system: SF-268 CNS
[43] = test system: SF-295 CNS
[44] = test system: SF-539 CNS
[45] = test system: SK-MEL-2 melanoma
[46] = test system: SK-MEL-28 melanoma
[47] = test system: SK-MEL-5 melanoma
[48] = test system: SK-OV-3 ovarian
[49] = test system: SN12C renal
[50] = test system: SNB-19 CNS
[51] = test system: SNB-75 CNS
[52] = test system: SR leukemia
[53] = test system: SW-620 colon
[54] = test system: T-47D breast
[55] = test system: TK-10 renal
[56] = test system: U251 CNS
[57] = test system: UACC-257 melanoma
[58] = test system: UACC-62 melanoma
[59] = test system: UO-31 renal

With `COc1ccc(C(=O)COc2ccc(NC(=O)Nc3ccc(Cl)c(C(F)(F)F)c3)cc2)cc1` the GI50 [1] was 4.57 µM, the TGI [1] was 24.5 µM and the GI50 [2] was 2.74 µM. It also gave a TGI [2] of 9.86 µM, a GI50 [3] of 3.2 µM and a TGI [3] of over 100 µM. It also gave a GI50 [4] of 3.35 µM, a TGI [4] of over 100 µM and a GI50 [5] of 4.38 µM. For the same compound, the TGI [5] was 40.8 µM, the GI50 [6] was 4.36 µM and the TGI [6] was over 100 µM. It also gave a GI50 [7] of 3.71 µM, a TGI [7] of over 100 µM and a GI50 [8] of 3.08 µM. The TGI [8] was over 100 µM, the GI50 [9] was 5.78 µM and the TGI [9] was over 100 µM. It also gave a GI50 [10] of 3.15 µM, a TGI [10] of 16.6 µM and a GI50 [11] of 3.8 µM. For the same compound, the TGI [11] was 34.2 µM, the GI50 [12] was 3.87 µM and the TGI [12] was over 100 µM. For the same compound, the GI50 [13] was 3.09 µM, the TGI [13] was over 100 µM and the GI50 [14] was 3.09 µM. It also gave a TGI [14] of 22.7 µM, a GI50 [15] of 6.69 µM and a TGI [15] of 96.4 µM. It also gave a GI50 [16] of 3.08 µM, a TGI [16] of 10 µM and a GI50 [17] of 2.89 µM. It also gave a TGI [17] of 9.97 µM, a GI50 [18] of 4.49 µM and a TGI [18] of over 100 µM. The GI50 [19] was 6 µM, the TGI [19] was over 100 µM and the GI50 [20] was 4.92 µM. For the same compound, the TGI [20] was over 100 µM, the GI50 [21] was 2.88 µM and the TGI [21] was 8.71 µM. The GI50 [22] was 3.2 µM, the TGI [22] was over 100 µM and the GI50 [23] was 2.72 µM. It also gave a TGI [23] of over 100 µM, a GI50 [24] of 2.84 µM and a TGI [24] of 18.2 µM. It also gave a GI50 [25] of 2.6 µM, a TGI [25] of over 100 µM and a GI50 [26] of 3.81 µM. For the same compound, the TGI [26] was 26.1 µM, the GI50 [27] was 3.63 µM and the TGI [27] was over 100 µM. It also gave a GI50 [28] of 2.8 µM, a TGI [28] of 8.67 µM and a GI50 [29] of 2.84 µM. The TGI [29] was over 100 µM, the GI50 [30] was 3.61 µM and the TGI [30] was 21 µM. It also gave a GI50 [31] of 4.52 µM, a TGI [31] of over 100 µM and a GI50 [32] of 3.34 µM. The TGI [32] was over 100 µM, the GI50 [33] was 2.96 µM and the TGI [33] was over 100 µM. For the same compound, the GI50 [34] was 3.69 µM, the TGI [34] was over 100 µM and the GI50 [35] was 3.3 µM. The TGI [35] was over 100 µM, the GI50 [36] was 2.87 µM and the TGI [36] was 17.9 µM. It also gave a GI50 [37] of 5.24 µM, a TGI [37] of over 100 µM and a GI50 [38] of 4.21 µM. It also gave a TGI [38] of over 100 µM, a GI50 [39] of 3.08 µM and a TGI [39] of over 100 µM. For the same compound, the GI50 [40] was 3.45 µM, the TGI [40] was over 100 µM and the GI50 [41] was 4.29 µM. It also gave a TGI [41] of 15.3 µM, a GI50 [42] of 4.04 µM and a TGI [42] of over 100 µM. It also gave a GI50 [43] of 3.35 µM, a TGI [43] of 25.9 µM and a GI50 [44] of 4.12 µM. For the same compound, the TGI [44] was 26.4 µM, the GI50 [45] was 2.86 µM and the TGI [45] was 34.4 µM. For the same compound, the GI50 [46] was 3.39 µM, the TGI [46] was 33.9 µM and the GI50 [47] was 3.14 µM. The TGI [47] was 19.7 µM, the GI50 [48] was 8.07 µM and the TGI [48] was over 100 µM. The GI50 [49] was 4.8 µM, the TGI [49] was over 100 µM and the GI50 [50] was 3.86 µM. For the same compound, the TGI [50] was 22.7 µM, the GI50 [51] was 1.67 µM and the TGI [51] was 14.3 µM. It also gave a GI50 [52] of 3.13 µM, a TGI [52] of over 100 µM and a GI50 [53] of 5.3 µM. It also gave a TGI [53] of over 100 µM, a GI50 [54] of 3.06 µM and a TGI [54] of 92.3 µM. It also gave a GI50 [55] of 7.9 µM, a TGI [55] of over 100 µM and a GI50 [56] of 3.71 µM. It also gave a TGI [56] of 26.1 µM, a GI50 [57] of 2.95 µM and a TGI [57] of over 100 µM. The GI50 [58] was 2.79 µM, the TGI [58] was 9.38 µM and the GI50 [59] was 3.75 µM. For the same compound, the TGI [59] was over 100 µM.
